Data on 25 compounds can be found in patent publication US9539260B2, “Dihydro-benzo-oxazine and dihydro-pyrido-oxazine derivatives” (Novartis AG, priority 2012, dated 2017).

For test [1], the target named is PI3K alpha (Homo sapiens (Human), UniProt P42336). As to the kind of experiment: Enzymatic PI3K alpha isoform inhibition (lipid kinase activity, Kinase-Glo luminescence). Format: biochemical. To be noted: Enzymatic assay. In outline: (§1)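 IC50s derive from 4-parameter logistic fits of % inhibition across 8 concentrations (usually 10 to 0.003 μM). Lipid kinase reaction: PI3K (10 nM) plus phosphatidylinositol (5 μg/mL) started with 2 μM ATP, stopped near 50% ATP depletion; leftover ATP quantified by Kinase-Glo luminescence.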

Test [2] has as its target PI3K delta (Homo sapiens (Human), UniProt O00329). As to the kind of experiment: Enzymatic PI3K delta isoform inhibition (lipid kinase activity, Kinase-Glo luminescence). Format: biochemical. To be noted: Enzymatic assay. The gist of the method:
as §1
A general note: In Kinase-Glo more light means more ATP remaining.

Structures are written as SMILES.

Chain of PI3K alpha (P42336 other isoform, or with tags, fused parts or gaps): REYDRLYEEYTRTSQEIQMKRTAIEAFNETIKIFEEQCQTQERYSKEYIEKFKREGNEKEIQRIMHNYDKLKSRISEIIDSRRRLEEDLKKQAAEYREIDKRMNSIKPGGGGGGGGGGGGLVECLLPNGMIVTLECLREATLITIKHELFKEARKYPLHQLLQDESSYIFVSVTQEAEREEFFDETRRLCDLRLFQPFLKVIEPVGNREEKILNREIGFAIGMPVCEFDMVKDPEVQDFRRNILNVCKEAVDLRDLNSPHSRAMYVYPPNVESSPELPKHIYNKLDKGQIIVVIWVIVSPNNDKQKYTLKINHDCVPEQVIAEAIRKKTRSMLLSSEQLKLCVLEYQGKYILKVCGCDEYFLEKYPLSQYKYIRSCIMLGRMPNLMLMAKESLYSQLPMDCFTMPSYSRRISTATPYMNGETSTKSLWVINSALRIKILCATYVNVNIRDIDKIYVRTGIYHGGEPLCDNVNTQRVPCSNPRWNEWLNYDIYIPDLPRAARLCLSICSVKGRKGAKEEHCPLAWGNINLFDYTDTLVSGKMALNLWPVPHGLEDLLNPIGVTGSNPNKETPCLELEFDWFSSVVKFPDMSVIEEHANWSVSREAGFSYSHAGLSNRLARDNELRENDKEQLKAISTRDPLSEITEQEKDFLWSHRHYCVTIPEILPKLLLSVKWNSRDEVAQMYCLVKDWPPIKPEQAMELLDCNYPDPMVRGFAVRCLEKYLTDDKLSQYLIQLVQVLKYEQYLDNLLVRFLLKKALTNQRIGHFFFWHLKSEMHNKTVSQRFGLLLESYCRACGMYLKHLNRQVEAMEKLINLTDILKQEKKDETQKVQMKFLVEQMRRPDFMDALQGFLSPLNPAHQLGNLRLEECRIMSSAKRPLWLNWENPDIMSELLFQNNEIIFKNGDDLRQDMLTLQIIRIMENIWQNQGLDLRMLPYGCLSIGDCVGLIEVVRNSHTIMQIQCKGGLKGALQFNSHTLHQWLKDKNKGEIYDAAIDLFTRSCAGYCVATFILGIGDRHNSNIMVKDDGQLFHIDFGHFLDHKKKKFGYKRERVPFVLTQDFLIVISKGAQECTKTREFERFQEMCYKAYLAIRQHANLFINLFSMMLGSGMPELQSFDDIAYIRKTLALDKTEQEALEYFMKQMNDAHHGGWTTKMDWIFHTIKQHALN
Chain of PI3K delta (O00329 other isoform, or with tags, fused parts or gaps linker GGGGGG): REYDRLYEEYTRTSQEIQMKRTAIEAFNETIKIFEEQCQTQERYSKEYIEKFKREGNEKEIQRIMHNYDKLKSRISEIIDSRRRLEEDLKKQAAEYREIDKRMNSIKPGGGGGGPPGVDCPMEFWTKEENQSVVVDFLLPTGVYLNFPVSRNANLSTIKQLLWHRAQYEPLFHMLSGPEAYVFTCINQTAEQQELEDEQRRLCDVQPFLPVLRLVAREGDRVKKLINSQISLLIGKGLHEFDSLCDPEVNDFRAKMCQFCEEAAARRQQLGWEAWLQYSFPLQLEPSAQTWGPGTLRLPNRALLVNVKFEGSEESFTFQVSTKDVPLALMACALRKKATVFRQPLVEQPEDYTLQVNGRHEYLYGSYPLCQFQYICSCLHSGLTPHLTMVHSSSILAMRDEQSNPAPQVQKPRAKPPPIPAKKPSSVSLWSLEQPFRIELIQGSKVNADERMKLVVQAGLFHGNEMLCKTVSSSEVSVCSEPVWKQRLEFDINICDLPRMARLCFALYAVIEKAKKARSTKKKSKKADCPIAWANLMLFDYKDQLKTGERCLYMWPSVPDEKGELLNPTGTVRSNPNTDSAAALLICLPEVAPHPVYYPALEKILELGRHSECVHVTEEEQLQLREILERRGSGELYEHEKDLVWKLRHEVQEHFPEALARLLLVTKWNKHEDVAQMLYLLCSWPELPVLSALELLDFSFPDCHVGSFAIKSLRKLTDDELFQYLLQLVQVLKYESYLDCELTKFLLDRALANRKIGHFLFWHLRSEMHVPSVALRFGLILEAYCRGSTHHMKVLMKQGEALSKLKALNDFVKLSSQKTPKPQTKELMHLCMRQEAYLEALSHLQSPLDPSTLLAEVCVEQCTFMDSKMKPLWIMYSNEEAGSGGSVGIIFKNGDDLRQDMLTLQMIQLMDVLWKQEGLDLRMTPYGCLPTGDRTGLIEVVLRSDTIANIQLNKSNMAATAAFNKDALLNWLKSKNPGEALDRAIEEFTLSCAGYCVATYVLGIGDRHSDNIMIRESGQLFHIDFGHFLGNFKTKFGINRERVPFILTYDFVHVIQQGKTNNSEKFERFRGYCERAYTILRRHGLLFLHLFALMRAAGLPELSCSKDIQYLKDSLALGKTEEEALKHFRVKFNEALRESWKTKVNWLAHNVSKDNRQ

Turning to `Cc1cnccc1C(=O)N1CC[C@H](Oc2ccc3c(c2)N(c2cnc(S(C)(=O)=O)c(C)c2)CCO3)C1` [Example B67, {(S)-3-[4-(6-Methanesulfonyl-5-methyl-pyridin-3-yl)-3,4-dihydro-2H-benzo[1,4]oxazin-6-yloxy]-pyrrolidin-1-yl}-(3-methyl-pyridin-4-yl)-methanone], the half-inhibitory concentration (IC50) (commonly the point on the concentration scale where inhibition reaches its midpoint) in test [1] came out at 804 nM; in test [2] it was 25 nM.

Regarding `Cc1cc(N2CCOc3ccc(O[C@H]4CCN(C(=O)Cc5ccncc5)C4)cc32)cnc1S(C)(=O)=O` [Example B68, 1-{(S)-3-[4-(6-Methanesulfonyl-5-methyl-pyridin-3-yl)-3,4-dihydro-2H-benzo[1,4]oxazin-6-yloxy]-pyrrolidin-1-yl}-2-pyridin-4-yl-ethanone], the IC50 stood at 840 nM in test [1] and 39 nM in test [2].

Turning to `CS(=O)(=O)c1ncc(N2CCOc3ccc(O[C@H]4CCN(C(=O)C5CCOCC5)C4)cc32)cc1C(F)(F)F` [Example B69, {(S)-3-[4-(6-Methanesulfonyl-5-trifluoromethyl-pyridin-3-yl)-3,4-dihydro-2H-benzo[1,4]oxazin-6-yloxy]-pyrrolidin-1-yl}-(tetrahydro-pyran-4-yl)-methanone], the IC50 in test [1] is 189 nM; in test [2], 5 nM.

As to `CS(=O)(=O)c1ncc(N2CCOc3ccc(O[C@H]4CCN(C(=O)C5CCOCC5)C4)cc32)cc1C(F)F` [Example B70, {(S)-3-[4-(5-Difluoromethyl-6-methanesulfonyl-pyridin-3-yl)-3,4-dihydro-2H-benzo[1,4]oxazin-6-yloxy]-pyrrolidin-1-yl}-(tetrahydro-pyran-4-yl)-methanone], the values for the IC50 in test [1] and in test [2] were 134 nM and 3 nM, respectively.

On to `CS(=O)(=O)c1ncc(N2CCOc3ccc(O[C@H]4CCN(C(=O)C5CCOCC5)C4)cc32)cc1CF` [Example B71, {(S)-3-[4-(5-Fluoromethyl-6-methanesulfonyl-pyridin-3-yl)-3,4-dihydro-2H-benzo[1,4]oxazin-6-yloxy]-pyrrolidin-1-yl}-(tetrahydro-pyran-4-yl)-methanone], for which the IC50 in test [1] was determined as 360 nM; in test [2], 5.5 nM.

Take `Cc1cc(N2CCOc3ccc(O[C@H]4CCN(C(=O)C5CCOCC5)C4)cc32)cnc1OC(F)F` [Example B72, {(S)-3-[4-(6-Difluoromethoxy-5-methyl-pyridin-3-yl)-3,4-dihydro-2H-benzo[1,4]oxazin-6-yloxy]-pyrrolidin-1-yl}-(tetrahydro-pyran-4-yl)-methanone]: the half-inhibitory concentration (IC50) was 2060 nM in test [1] and 32 nM in test [2].

Turning to `Cc1cc(N2CCOc3ccc(O[C@H]4CCN(C(=O)C5CCS(=O)(=O)CC5)C4)cc32)cnc1OC(F)F` [Example B73, {(S)-3-[4-(6-Difluoromethoxy-5-methyl-pyridin-3-yl)-3,4-dihydro-2H-benzo[1,4]oxazin-6-yloxy]-pyrrolidin-1-yl}-(1,1-dioxo-hexahydro-6-thiopyran-4-yl)-methanone], the figures for the IC50 in test [1] and in test [2] were 1770 nM and 30 nM, respectively.

On to `Cn1cnc(C(=O)N2CC[C@H](Oc3ccc4c(c3)N(c3cnc(S(C)(=O)=O)c(C(F)F)c3)CCO4)C2)c1` [Example B74], for which the figures for the IC50 in test [1] and in test [2] were 54 nM and 9 nM, respectively.

As for `CS(=O)(=O)c1ncc(N2CCOc3ccc(O[C@H]4CCN(C(=O)[C@@H]5CCOC5)C4)cc32)cc1C(F)F` [Example B75, {(S)-3-[4-(5-Difluoromethyl-6-methanesulfonyl-pyridin-3-yl)-3,4-dihydro-2H-benzo[1,4]oxazin-6-yloxy]-pyrrolidin-1-yl}-(R)-tetrahydro-furan-3-yl-methanone], the figures for the IC50 in test [1] and in test [2] were 211 nM and 11 nM, respectively.

As for `CS(=O)(=O)c1ncc(N2CCOc3ccc(O[C@H]4CCN(C(=O)[C@H]5CCOC5)C4)cc32)cc1C(F)F` [Example B76, {(S)-3-[4-(5-Difluoromethyl-6-methanesulfonyl-pyridin-3-yl)-3,4-dihydro-2H-benzo[1,4]oxazin-6-yloxy]-pyrrolidin-1-yl}-(S)-tetrahydro-furan-3-yl-methanone], the results for the IC50 in test [1] and in test [2] were 399 nM and 61 nM, respectively.

On to `CNc1cc(N2CCOc3ccc(O[C@H]4CCN(C(=O)C5CCOCC5)C4)cc32)cnc1S(C)(=O)=O` [Example B77, {(S)-3-[4-(6-Methanesulfonyl-5-methylamino-pyridin-3-yl)-3,4-dihydro-2H-benzo[1,4]oxazin-6-yloxy]-pyrrolidin-1-yl}-(tetrahydro-pyran-4-yl)-methanone], for which the concentration for half-maximal inhibition (IC50) is 897 nM in test [1] and 32 nM in test [2].

On to `CS(=O)(=O)c1ncc(N2CCOc3ccc(O[C@H]4CCN(C(=O)C5CCOCC5)C4)cc32)cc1Cl` [Example B79, {(S)-3-[4-(5-Chloro-6-methanesulfonyl-pyridin-3-yl)-3,4-dihydro-2H-benzo[1,4]oxazin-6-yloxy]-pyrrolidin-1-yl}-(tetrahydro-pyran-4-yl)-methanone], for which the 50% inhibitory concentration (IC50) in test [1] stood at 661 nM; in test [2], 3 nM.

As to `Cc1cc(N2CCOc3ccc(O[C@H]4CCN(C(=O)C5CC5)C4)cc32)cnc1S(C)(=O)=O` [Example B80, Cyclopropyl-{(S)-3-[4-(6-methanesulfonyl-5-methyl-pyridin-3-yl)-3,4-dihydro-2H-benzo[1,4]oxazin-6-yloxy]-pyrrolidin-1-yl}-methanone], the results for the IC50 in test [1] and in test [2] were 295 nM and 4 nM, respectively.

Take `Cc1cc(N2CCOc3ccc(O[C@H]4CCN(S(=O)(=O)C5CCOCC5)C4)cc32)cnc1S(C)(=O)=O` [Example B81, 4-(6-Methanesulfonyl-5-methyl-pyridin-3-yl)-6-[(S)-1-(tetrahydro-pyran-4-sulfonyl)-pyrrolidin-3-yloxy]-3,4-dihydro-2H-benzo[1,4]oxazine]: the IC50 in test [1] was 482 nM; in test [2], 81 nM.

Turning to `Cc1cc(N2CCOc3ccc(O[C@H]4CCN(S(=O)(=O)C(C)C)C4)cc32)cnc1S(C)(=O)=O` [Example B82, 4-(6-Methanesulfonyl-5-methyl-pyridin-3-yl)-6-[(S)-1-(propane-2-sulfonyl)-pyrrolidin-3-yloxy]-3,4-dihydro-2H-benzo[1,4]oxazine], the half-inhibitory concentration (IC50) in test [1] was found to be 353 nM; in test [2], 66 nM.

As to `Cc1cc(N2CCOc3ccc(O[C@H]4CCN(S(=O)(=O)C5CC5)C4)cc32)cnc1S(C)(=O)=O` [Example B83, 6-((S)-1-Cyclopropanesulfonyl-pyrrolidin-3-yloxy)-4-(6-methanesulfonyl-5-methyl-pyridin-3-yl)-3,4-dihydro-2H-benzo[1,4]oxazine], the 50% inhibitory concentration (IC50) stood at 214 nM in test [1] and 29 nM in test [2].

For `CCS(=O)(=O)N1CC[C@H](Oc2ccc3c(c2)N(c2cnc(S(C)(=O)=O)c(C)c2)CCO3)C1` [Example B84, 6-((S)-1-Ethanesulfonyl-pyrrolidin-3-yloxy)-4-(6-methanesulfonyl-5-methyl-pyridin-3-yl)-3,4-dihydro-2H-benzo[1,4]oxazine], the values for the half-inhibitory concentration (IC50) in test [1] and in test [2] were 346 nM and 80 nM, respectively.

As for `CS(=O)(=O)c1ncc(N2CCOc3ccc(O[C@H]4CCN(C(=O)C5CCOCC5)C4)cc32)cc1F` [Example B86, {(S)-3-[4-(5-Fluoro-6-methanesulfonyl-pyridin-3-yl)-3,4-dihydro-2H-benzo[1,4]oxazin-6-yloxy]-pyrrolidin-1-yl}-(tetrahydro-pyran-4-yl)-methanone], the half-maximal inhibitory concentration (IC50) was determined as 6630 nM in test [1] and 61 nM in test [2].

On to `CCS(=O)(=O)c1ccc(N2CCOc3ccc(O[C@H]4CCN(C(=O)C5CCOCC5)C4)cc32)cn1` [Example B87, {(S)-3-[4-(6-Ethanesulfonyl-pyridin-3-yl)-3,4-dihydro-2H-benzo[1,4]oxazin-6-yloxy]-pyrrolidin-1-yl}-(tetrahydro-pyran-4-yl)-methanone], for which the IC50 in test [1] is 7090 nM; in test [2], 29 nM.

As for `COc1ncc(N2CCOc3ccc(O[C@H]4CCN(C(=O)c5cncn5C)C4)cc32)cc1C` [Example B88, {(S)-3-[4-(6-Methoxy-5-methyl-pyridin-3-yl)-3,4-dihydro-2H-benzo[1,4]oxazin-6-yloxy]-pyrrolidin-1-yl}-(3-methyl-3H-imidazol-4-yl)-methanone], the half-inhibitory concentration (IC50) was determined as 234 nM in test [1] and 8 nM in test [2].

Take `COc1ncc(N2CCOc3ccc(O[C@H]4CCN(C(=O)c5cn(C)cn5)C4)cc32)cc1C` [Example B89, {(S)-3-[4-(6-Methoxy-5-methyl-pyridin-3-yl)-3,4-dihydro-2H-benzo[1,4]oxazin-6-yloxy]-pyrrolidin-1-yl}-(1-methyl-1H-imidazol-4-yl)-methanone]: the IC50 in test [1] was determined as 133 nM; in test [2], 9 nM.

On to `COc1ncc(N2CCOc3ccc(O[C@H]4CCN(C(=O)C5CCN(C(C)=O)CC5)C4)cc32)cc1C` [Example B90, 1-(4-{(S)-3-[4-(6-Methoxy-5-methyl-pyridin-3-yl)-3,4-dihydro-2H-benzo[1,4]oxazin-6-yloxy]-pyrrolidine-1-carbonyl}-piperidin-1-yl)-ethanone], for which the half-inhibitory concentration (IC50) stood at 1460 nM in test [1] and 11 nM in test [2].

In the case of `COc1ncc(N2CCOc3ccc(O[C@H]4CCN(C(=O)c5cc[nH]c(=O)c5)C4)cc32)cc1C` [Example B91, 4-{(S)-3-[4-(6-Methoxy-5-methyl-pyridin-3-yl)-3,4-dihydro-2H-benzo[1,4]oxazin-6-yloxy]-pyrrolidine-1-carbonyl}-1H-pyridin-2-one], the IC50 is 353 nM in test [1] and 12 nM in test [2].

In the case of `COc1ncc(N2CCOc3ccc(O[C@H]4CCN(C(=O)c5ccc(=O)[nH]c5)C4)cc32)cc1C` [Example B92, 5-{(S)-3-[4-(6-Methoxy-5-methyl-pyridin-3-yl)-3,4-dihydro-2H-benzo[1,4]oxazin-6-yloxy]-pyrrolidine-1-carbonyl}-1H-pyridin-2-one], the IC50 in test [1] worked out at 346 nM; in test [2], 8 nM.

`COc1ncc(N2CCOc3ccc(O[C@H]4CCN(C(=O)C5CCS(=O)(=O)CC5)C4)cc32)cc1C` [Example B93, (1,1-Dioxo-hexahydro-1lambda*6*-thiopyran-4-yl)-{(S)-3-[4-(6-methoxy-5-methyl-pyridin-3-yl)-3,4-dihydro-2H-benzo[1,4]oxazin-6-yloxy]-pyrrolidin-1-yl}-methanone]: the IC50 in test [1] stood at 525 nM; in test [2], 4 nM.
